These results are taken from US9243254B2, “Method for transforming a bacterium belonging to the streptococcus genus by natural competence” (priority 2009, dated 2016).

Holding throughout (assay type): cell-based, Streptococcus thermophilus
One experiment has as its system S. thermophilus LMG18311. In words: Natural transformation in CDM upon addition of synthetic peptide.
A further experiment relates to S. thermophilus LMD-9. The description is as above. On the procedure: Similarly to the protocol used in example 4, strains LMD-9, LMG18311, CNRZ1066 and JIM8777 were pre-cultivated in M17-lactose medium. The cells of the precultures were harvested (5000 g, 9 minutes, 20° C.) and washed twice in CDM and then resuspended in CDM. The washed cells were diluted in fresh CDM medium to obtain an optical density of 0.05, and then incubated at 37° C. After 1.5 h of incubation, in one set of experiment, 1 μM of one of the tested synthetic peptides and 1 μg/mL of pGIUD0855ery DNA (in case of S. thermophilus strains), or 1 μg/ml of pG+host09 DNA (in case of S. salivarius strains) were added to the culture, whereas 1 μg/mL of DNA but no synthetic peptide was added to the second set of experiment. The cultures were grown during 6 hours and serial dilutions were plated on the surface of M17-lactose agar medium containing 2.5 μg/mL of erythromycin to measure transformation efficiency. Transformed S. thermophilus and S. salivarius cells are selected at 37° C. and 29° C., respectively.
Similarly to the protocol used in example 4, various S. thermophilus strains, including LMD-9, CNRZ1066 and LMG18311 used as controls, were pre-cultivated in M17-lactose medium. The cells of the precultures were harvested (5000 g, 9 minutes, 20° C.) and washed twice in CDM and then resuspended in CDM. The washed cells were diluted in fresh CDM medium to obtain an optical density of 0.05, and then incubated at 37° C. After 1.5 h of incubation, in one set of experiment, 1 μM of one of the tested synthetic peptides (LPYFAGCL) (SEQ ID NO: 85) and 1 μg/mL of pGIUD0855cat DNA were added to the culture, whereas 1 μg/mL of DNA but no synthetic peptide was added to the second set of experiment. Plasmid pGIUD0855cat is a pUC18-derivative containing a chloramphenicol resistance cassette flanked by 1-kb fragments corresponding to the upstream and downstream regions of stu0855. Upon transformation, it promotes the genetic replacement of stu0855 by P32-cat through homologous recombination (FIG. 7). The cultures were grown during 6 hours and serial dilutions were plated on the surface of M17-lactose agar medium containing 5 μg/mL of chloramphenicol to measure transformation efficiency. Transformed S. thermophilus cells were selected at 37° C.; when transformants were obtained, the transformation efficiency was calculated and is given in Table 9.
The overlapping PCR product was transferred through natural competence in strain LMD-9. Similarly to the protocol used in example 4, strain LMD-9 was pre-cultivated in M17-lactose medium. The cells of the precultures were harvested (5000 g, 9 minutes, 20° C.) and washed twice in CDM and then resuspended in CDM. The washed cells were diluted in fresh CDM medium to obtain an optical density of 0.05, and then incubated at 37° C. After 1.5 hour of incubation, 1 μM of LPYFAGCL (SEQ ID NO: 85) synthetic peptide and 1 μg/mL of the PCR product prepared above (joining the A, B and C fragments) were added to the culture. After the DNA uptake by the bacteria, the P32-cat cassette flanked by the two lox sites spontaneously replaces the his operon by double homologous recombination (FIG. 10). The transformation rate of the overlapping PCR was 1.1×10^−6 (160 Chloramphenicol-resistant CFU/mL). One isolate named CB15 was selected. […]

Experiment [1] deals with LMD9-Δblp::PcomX-luxABΔshp316::P32-cat. The experiment can be described thus: Natural transformation in CDM of the shp316-deleted strain upon addition of synthetic peptides (test A). The settings on record: for Transformation rate, With peptide addition / Restoration of the competence defect: 1 μM synthetic peptide; for Transformation rate, With peptide addition / Transformation rate: 1 μg/mL pGIUD0855ery; for Transformation rate, With peptide addition: CDM, erythromycin selection. As to the method:
A mutant strain of LMD-9 in which the shp316 gene (which is the gene encoding the peptide Shp316) has been inactivated, such as strain LMD9-Δblp::PcomX-luxABΔshp316::P32-cat (see Example 2 for details on this strain) is pre-cultivated in M17-lactose medium. The cells of the preculture are harvested (5000 g, 9 minutes, 20° C.) and washed twice in Chemically Defined Medium (CDM, see Annex I) and then resuspended in CDM. The washed cells are diluted in fresh CDM medium to obtain an optical density of 0.05 at 600 nm, and then incubated at 37° C. After 1.5 h of incubation, the culture is separated in 2 aliquots of 10 mL and 0 or 1000 nM of peptide are added in the culture samples. Finally, each 10 mL-aliquot is divided in 2 samples of 5 mL each. One of the 2 samples receives 1 μg/mL pGIUD0855ery, a plasmid bearing an erythromycin resistance gene. The competence phenotype of the samples is studied by performing natural transformation experiments as described in example 1. The cultures are grown for 6 hours and serial dilutions are plated on the surface of M17-lactose agar medium containing or not 2.5 μg/mL of erythromycin. The transformation rate in the presence or absence of peptide is calculated for each sample; it is expressed as the ratio of erythromycin-resistant cells among the total bacterial population.
The experimental strategy is described below. Strain LMD9-Δblp::PcomX-luxABΔshp316::P32-cat is precultivated in M17-lactose medium. The cells of the preculture were harvested (5000 g, 9 minutes, 20° C.) and washed twice in CDM and then resuspended in CDM. The washed cells are diluted in fresh CDM to obtain an optical density of 0.05 at 600 nm, and then incubated at 37° C. After 1.5 h of incubation, in one set of experiment, 1 μM of one of the tested synthetic peptides and 1 μg/mL of pGIUD0855ery were added to the culture; whereas 1 μg/mL of pGIUD0855ery but no synthetic peptide was added to the second set of experiment. The cultures were grown during 6 hours and serial dilutions were plated on the surface of M17-lactose agar medium containing 2.5 μg/mL of erythromycin to measure transformation efficiency.
Ability of peptides derived from Shp316 to restore the competence defect of LMD9-Δblp::PcomX-luxABΔshp316::P32-cat was further investigated focusing on the synthetic peptide PYFAGCL. Experimental work was performed as described above except that various concentrations of PYFAGCL were used: 0 nM, 1 nM, 10 nM, 100 nM, 500 nM, 1 μM, 2.5 μM and 5 μM. […]

Where [2] appears, read: 1 μM LPYFAGCL, 1 μg/mL pUC18_stu0855::P32cat, chloramphenicol selection.
Where [3] appears, read: 1 μM PYFAGCL, 1 μg/mL pGIUD0855ery.
Setting [4] is: 1 μM peptide in CDM versus no peptide.

Some results are limits rather than exact numbers.

With “LPYFAGCL (fragment) [synthetic peptide corresponding to a C-terminal fragment of Shp316]”, the “Transformation rate, With peptide addition” value in the experiment with S. thermophilus LMG18311 (setting [2]) is reported as 1.3 × 10^−1; in the experiment on S. thermophilus LMD-9 (setting [2]) it was 5.4 × 10^−3; in experiment [1], 3.18 × 10^−3. In the experiment with S. thermophilus LMG18311 (LPYFAGCL-induced competence, forty six μg of LMD-9 genomic DNA, selection on CDM agar deprived of histidine), the “Calculated efficiency of transformation” value is 0.00016 µg⁻¹. The “Chloramphenicol-resistant CFU obtained with the overlapping PCR” value with S. thermophilus LMD-9 (1 μM LPYFAGCL, 1 μg/mL overlapping PCR product) stood at 160 CFU/mL. Moreover, the “Transformation rate of the overlapping PCR” value in the experiment with S. thermophilus LMD-9 (1 μM LPYFAGCL, 1 μg/mL overlapping PCR product (his operon replacement by lox66-P32cat-lox71)) was 1.1×10^−6. Further, the “Restoration of the competence defect” value in experiment [1] (result in words) is “allowed to restore the competence defect”.
Consider PYFAGCL (fragment), for which the “Transformation rate, With peptide addition” value with S. thermophilus LMG18311 (setting [3]) is 3.17 × 10^−4; in the experiment with S. thermophilus LMD-9 (setting [3]), 3.10 × 10^−3; in experiment [1], 4.78 × 10^−3. Also, in the experiment on S. thermophilus LMG18311 (setting [4]), the “Increase of efficiency of transformation upon peptide addition” value worked out at 1000 fold. Further, in the experiment with S. thermophilus LMD-9 (setting [4]), the “Increase of natural competence upon extracellular peptide addition” value is listed as 10 fold. For the same substance, the Transformation rate in experiment [1] (1 nM PYFAGCL) is listed as <10^−8; in experiment [1] (10 nM PYFAGCL), <10^−8; in experiment [1] (100 nM PYFAGCL), 4.14 × 10^−7; in experiment [1] (500 nM PYFAGCL) it was 1.01 × 10^−3; in experiment [1] (1000 nM PYFAGCL), 5.15 × 10^−3; in experiment [1] (2500 nM PYFAGCL), 3.10 × 10^−3. The Transformation rate in experiment [1] (5000 nM PYFAGCL) is 6.38 × 10^−3. Moreover, the “Restoration of the competence defect” value in experiment [1] (result in words) is on record as “allowed to restore the competence defect”. Also, the Restoration of competence result in experiment [1] (concentrations lower than 100 nM, result in words) is “did not restore the competence”. Also, the “Concentration at which maximum efficiency of the peptide was recorded” value in experiment [1] (dose-response 0 nM to 5 μM) was determined as 1 µM.
